Here are results for 17 compounds from US20230257372A1 (CHONG KUN DANG PHARMACEUTICAL CORP., priority 2020, published 2023).

In one test the target is T1, human recombinant HDAC6 (Homo sapiens, UniProt Q9UBN7).
T1 construct: purchased Calbiochem Inc. 382180
T1 sequence (Q9UBN7 1-1215): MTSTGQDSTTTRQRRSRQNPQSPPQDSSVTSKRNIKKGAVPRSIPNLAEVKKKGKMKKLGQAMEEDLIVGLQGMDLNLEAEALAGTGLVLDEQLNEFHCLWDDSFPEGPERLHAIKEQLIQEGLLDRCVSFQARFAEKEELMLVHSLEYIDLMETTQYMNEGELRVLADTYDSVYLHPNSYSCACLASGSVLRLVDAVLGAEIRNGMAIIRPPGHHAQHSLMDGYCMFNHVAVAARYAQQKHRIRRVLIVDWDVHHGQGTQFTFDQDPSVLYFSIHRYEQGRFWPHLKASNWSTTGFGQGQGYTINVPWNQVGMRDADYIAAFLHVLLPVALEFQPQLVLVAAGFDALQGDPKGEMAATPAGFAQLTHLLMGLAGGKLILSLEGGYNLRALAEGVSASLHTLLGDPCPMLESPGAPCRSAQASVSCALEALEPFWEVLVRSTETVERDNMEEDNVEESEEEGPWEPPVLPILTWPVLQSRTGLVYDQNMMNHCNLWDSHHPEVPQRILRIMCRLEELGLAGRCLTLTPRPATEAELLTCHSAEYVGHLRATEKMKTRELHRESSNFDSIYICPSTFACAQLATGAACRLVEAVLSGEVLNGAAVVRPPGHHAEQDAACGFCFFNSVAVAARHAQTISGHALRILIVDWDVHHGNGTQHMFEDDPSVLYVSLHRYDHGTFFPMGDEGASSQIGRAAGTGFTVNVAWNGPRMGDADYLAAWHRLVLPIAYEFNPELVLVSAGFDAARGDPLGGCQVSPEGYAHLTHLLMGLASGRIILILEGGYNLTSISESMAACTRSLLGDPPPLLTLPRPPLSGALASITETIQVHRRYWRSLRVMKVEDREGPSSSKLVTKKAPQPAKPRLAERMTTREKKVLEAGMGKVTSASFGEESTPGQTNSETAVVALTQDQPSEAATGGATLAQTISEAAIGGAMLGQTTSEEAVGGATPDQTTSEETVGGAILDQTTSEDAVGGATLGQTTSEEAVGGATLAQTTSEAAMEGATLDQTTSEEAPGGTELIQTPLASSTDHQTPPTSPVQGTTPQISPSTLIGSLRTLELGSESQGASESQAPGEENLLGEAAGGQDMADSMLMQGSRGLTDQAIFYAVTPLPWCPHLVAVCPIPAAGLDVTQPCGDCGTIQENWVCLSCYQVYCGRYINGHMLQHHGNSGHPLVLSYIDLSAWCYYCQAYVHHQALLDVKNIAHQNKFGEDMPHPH
In words: HDAC6 enzyme activity inhibition (HDAC Fluorimetric Drug Discovery Kit). In kind it is biochemical. The gist of the method: (§1)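 Five-fold compound dilutions incubated with […] recombinant enzyme and 10 μM fluorogenic Fluor de Lys substrate, 60 min at 30° C. Fluor de Lys Developer II then added for 30 min to generate the fluorescent read-out.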

In another test the target is T2, human recombinant HDAC1 (Homo sapiens, UniProt Q13547).
T2 construct: purchased Enzo Life Science, Inc. BML-SE456
T2 sequence (Q13547 whole entry): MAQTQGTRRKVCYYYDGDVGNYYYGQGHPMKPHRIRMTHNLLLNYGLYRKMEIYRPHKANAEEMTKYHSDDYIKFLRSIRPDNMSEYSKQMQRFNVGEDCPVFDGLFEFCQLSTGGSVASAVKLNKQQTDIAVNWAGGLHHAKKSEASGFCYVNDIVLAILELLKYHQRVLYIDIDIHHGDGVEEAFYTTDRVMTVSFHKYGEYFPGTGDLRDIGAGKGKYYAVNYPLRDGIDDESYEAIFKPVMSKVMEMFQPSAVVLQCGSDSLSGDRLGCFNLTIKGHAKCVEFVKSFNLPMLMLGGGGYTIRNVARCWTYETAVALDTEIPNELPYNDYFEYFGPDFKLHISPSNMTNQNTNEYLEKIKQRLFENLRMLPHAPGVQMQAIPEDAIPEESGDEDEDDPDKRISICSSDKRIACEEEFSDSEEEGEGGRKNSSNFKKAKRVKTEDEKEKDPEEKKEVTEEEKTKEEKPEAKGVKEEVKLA
In words: HDAC1 enzyme activity inhibition (HDAC Fluorimetric Drug Discovery Kit). In kind it is biochemical. As to conditions: read-out: HDAC1. The gist of the method:
as §1

The mark [1] stands for this setting: human recombinant HDAC6, same protocol as HDAC1.
Where [2] appears, read: human recombinant HDAC1, Fluor de Lys substrate, 30° C. 60 minutes.
[3] abbreviates: human recombinant HDAC6, IC50 calculated with GraphPad Prism.
Where [4] appears, read: human recombinant HDAC1, IC50 calculated with GraphPad Prism.

Read-outs that look alike come from different tables or passages of the source.

As to `FC(F)c1nnc(-c2ccc(Cn3cc(-c4ccc(CNC5CCC5)cc4)nn3)cc2)o1` [Compound 4555, N-(4-(1-(4-(5-(difluoromethyl)-1,3,4-oxadiazol-2-yl)benzyl)-1H-1,2,3-triazol-4-yl)benzyl)cyclobutanamine], the “HDAC6 selectivity (fold)” value at human recombinant HDAC6 (HDAC6 over HDAC1) turned out to be 2100 fold. The values for the IC50 at human recombinant HDAC6 (setting [1]) and on human recombinant HDAC1 (setting [2]) were 23.8 nM and above 50000 nM, respectively.

Consider `Fc1cc(-c2nnc(C(F)F)o2)ccc1Cn1cc(-c2ccc(F)c(N3C[C@@H]4C[C@H]3CN4)c2)nn1` [Compound 4399, 2-(4-((4-(3-((1S,4S)-2,5-diazabicyclo[2.2.1]heptan-2-yl)-4-fluorophenyl)-1H-1,2,3-triazol-1-yl)methyl)-3-fluorophenyl)-5-(difluoromethyl)-1,3,4-oxadiazole], for which the “HDAC6 selectivity (fold)” value on human recombinant HDAC6 (HDAC1 IC50 / HDAC6 IC50) came out at 460 fold. For the same compound, the IC50 on human recombinant HDAC6 (setting [3]) is 108 nM; on human recombinant HDAC1 (setting [4]), above 50000 nM.

On to `FC(F)c1nnc(-c2ccc(Cn3cc(-c4cccc(CN5CCC5)c4)nn3)cc2)o1` [Compound 4409, 2-(4-((4-(3-(azetidin-1-ylmethyl)phenyl)-1H-1,2,3-triazol-1-yl)methyl)phenyl)-5-(difluoromethyl)-1,3,4-oxadiazole], for which the “HDAC6 selectivity (fold)” value at human recombinant HDAC6 (HDAC1 IC50 / HDAC6 IC50) came to 96 fold. The results for the IC50 on human recombinant HDAC6 (setting [3]) and on human recombinant HDAC1 (setting [4]) were 519 nM and above 50000 nM, respectively.

Take `CNCc1cccc(-c2cn(Cc3ccc(-c4nnc(C(F)F)o4)cn3)nn2)c1` [Compound 3919, 1-(3-(1-((5-(5-(difluoromethyl)-1,3,4-oxadiazol-2-yl)pyridin-2-yl)methyl)-1H-1,2,3-triazol-4-yl)phenyl)-N-methylmethanamine]: the “HDAC6 selectivity (fold)” value on human recombinant HDAC6 (HDAC1 IC50 / HDAC6 IC50) was found to be 1358 fold. In addition, the IC50 is 36.8 nM at human recombinant HDAC6 (setting [3]) and above 50000 nM on human recombinant HDAC1 (setting [4]).

For `NC1(C(=O)Nc2cccc(-c3cn(Cc4ccc(-c5nnc(C(F)F)o5)cn4)nn3)c2)CCC1` [Compound 4498, 1-amino-N-(3-(1-((5-(5-(difluoromethyl)-1,3,4-oxadiazol-2-yl)pyridin-2-yl)methyl)-1H-1,2,3-triazol-4-yl)phenyl)cyclobutan-1-carboxamide], the “HDAC6 selectivity (fold)” value at human recombinant HDAC6 (HDAC6 over HDAC1) was 1628 fold. The IC50 at human recombinant HDAC6 (setting [1]) was 30.7 nM; at human recombinant HDAC1 (setting [2]), above 50000 nM.

For `FC(F)c1nnc(-c2ccc(Cn3cc(-c4ccc5c(c4)CCN(C4CCC4)C5)nn3)nc2)o1` [Compound 4054, 2-(6-((4-(2-cyclobutyl-1,2,3,4-tetrahydroisoquinolin-6-yl)-1H-1,2,3-triazol-1-yl)methyl)pyridin-3-yl)-5-(difluoromethyl)-1,3,4-oxadiazole], on human recombinant HDAC6 (HDAC1 IC50 / HDAC6 IC50), the “HDAC6 selectivity (fold)” value is 1094 fold. Moreover, the IC50 is 45.7 nM on human recombinant HDAC6 (setting [3]) and above 50000 nM on human recombinant HDAC1 (setting [4]).

For the compound `CN1CCN(Cc2ccc(-c3cn(Cc4ccc(-c5nnc(C(F)F)o5)cc4)nn3)cc2)CC1` [Compound 4552, 2-(difluoromethyl)-5-(4-((4-(4-((4-methylpiperazin-1-yl)methyl)phenyl)-1H-1,2,3-triazol-1-yl)methyl)phenyl)-1,3,4-oxadiazole], the “HDAC6 selectivity (fold)” value at human recombinant HDAC6 (HDAC6 over HDAC1) came to 1184 fold. For the same compound, the figures for the IC50 at human recombinant HDAC6 (setting [1]) and at human recombinant HDAC1 (setting [2]) were 42.2 nM and above 50000 nM, respectively.

`CN(C)Cc1cc(Cl)cc(-c2cn(Cc3ccc(-c4nnc(C(F)F)o4)cc3F)nn2)c1` [Compound 18483, 1-(3-chloro-5-(1-(4-(5-(difluoromethyl)-1,3,4-oxadiazol-2-yl)-2-fluorobenzyl)-1H-1,2,3-triazol-4-yl)phenyl)-N,N-dimethylmethanamine]: the “HDAC6 selectivity (fold)” value on human recombinant HDAC6 (HDAC6 over HDAC1) worked out at 970 fold. Further, the IC50 at human recombinant HDAC6 (setting [1]) is 51.5 nM; at human recombinant HDAC1 (setting [2]), above 50000 nM.

For the compound `CCN1CCN(c2cccc(-c3cn(Cc4ccc(-c5nnc(C(F)F)o5)cn4)nn3)c2)CC1` [Compound 3988, 2-(difluoromethyl)-5-(6-((4-(3-(4-ethylpiperazin-1-yl)phenyl)-1H-1,2,3-triazol-1-yl)methyl)pyridin-3-yl)-1,3,4-oxadiazole], on human recombinant HDAC6 (HDAC1 IC50 / HDAC6 IC50), the “HDAC6 selectivity (fold)” value amounted to 4716 fold. Besides, the IC50 on human recombinant HDAC6 (setting [3]) was 10.6 nM; on human recombinant HDAC1 (setting [4]), above 50000 nM.

For the compound `Fc1cc(-c2nnc(C(F)F)o2)ccc1Cn1cc(-c2cnc3[nH]ccc3c2)nn1` [Compound 4524, 2-(4-((4-(1H-pyrrolo[2,3-b]pyridin-5-yl)-1H-1,2,3-triazol-1-yl)methyl)-3-fluorophenyl)-5-(difluoromethyl)-1,3,4-oxadiazole], the “HDAC6 selectivity (fold)” value on human recombinant HDAC6 (HDAC6 over HDAC1) was found to be 6024 fold. Further, the IC50 was 8.3 nM at human recombinant HDAC6 (setting [1]) and above 50000 nM at human recombinant HDAC1 (setting [2]).

As to `O=C(O)c1cccc(-c2cn(Cc3ccc(-c4nnc(C(F)F)o4)cc3F)nn2)c1` [Compound 3660, 3-(1-(4-(5-(difluoromethyl)-1,3,4-oxadiazol-2-yl)-2-fluorobenzyl)-1H-1,2,3-triazol-4-yl)benzoic acid], the “HDAC6 selectivity (fold)” value on human recombinant HDAC6 (HDAC1 IC50 / HDAC6 IC50) is listed as 175 fold. Also, the results for the IC50 at human recombinant HDAC6 (setting [3]) and at human recombinant HDAC1 (setting [4]) were 285 nM and above 50000 nM, respectively.

With `CC1(C)CCN(Cc2ccc(-c3cn(Cc4ccc(-c5nnc(C(F)F)o5)cc4F)nn3)cn2)CC1` [Compound 17777, 2-(difluoromethyl)-5-(4-((4-(6-((4,4-dimethylpiperidin-1-yl)methyl)pyridin-3-yl)-1H-1,2,3-triazol-1-yl)methyl)-3-fluorophenyl)-1,3,4-oxadiazole], the “HDAC6 selectivity (fold)” value at human recombinant HDAC6 (HDAC6 over HDAC1) is 952 fold. The IC50 on human recombinant HDAC6 (setting [1]) was 52.5 nM; on human recombinant HDAC1 (setting [2]) it was above 50000 nM.

With `CCN1[C@H](C)CN(c2cccc(-c3cn(Cc4ccc(-c5nnc(C(F)F)o5)cc4F)nn3)c2)C[C@@H]1C` [Compound 4444], the “HDAC6 selectivity (fold)” value on human recombinant HDAC6 (HDAC1 IC50 / HDAC6 IC50) is reported as 1872 fold. In addition, the IC50 was 26.7 nM on human recombinant HDAC6 (setting [3]) and above 50000 nM at human recombinant HDAC1 (setting [4]).

For `Fc1ccc(N2CCN(C3CCC3)CC2)cc1-c1cn(Cc2ccc(-c3nnc(C(F)F)o3)cc2)nn1` [Compound 4454, 2-(4-((4-(5-(4-cyclobutylpiperazin-1-yl)-2-fluorophenyl)-1H-1,2,3-triazol-1-yl)methyl)phenyl)-5-(difluoromethyl)-1,3,4-oxadiazol], the “HDAC6 selectivity (fold)” value on human recombinant HDAC6 (HDAC1 IC50 / HDAC6 IC50) stood at 632 fold. Further, the figures for the IC50 on human recombinant HDAC6 (setting [3]) and at human recombinant HDAC1 (setting [4]) were 79.1 nM and above 50000 nM, respectively.

On to `CN1CCc2cc(-c3cn(Cc4ccc(-c5nnc(C(F)F)o5)cn4)nn3)ccc2C1` [Compound 4051, 2-(difluoromethyl)-5-(6-((4-(2-methyl-1,2,3,4-tetrahydroisoquinolin-6-yl)-1H-1,2,3-triazol-1-yl)methyl)pyridin-3-yl)-1,3,4-oxadiazole], for which, at human recombinant HDAC6 (HDAC1 IC50 / HDAC6 IC50), the “HDAC6 selectivity (fold)” value came to 1623 fold. Further, the IC50 was 30.8 nM on human recombinant HDAC6 (setting [3]) and above 50000 nM on human recombinant HDAC1 (setting [4]).

`Fc1cc(-c2nnc(C(F)F)o2)ccc1Cn1cc(-c2ccccc2CNC2COC2)nn1` [Compound 4590, N-(2-(1-(4-(5-(difluoromethyl)-1,3,4-oxadiazol-2-yl)-2-fluorobenzyl)-1H-1,2,3-triazol-4-yl)benzyl)oxetan-3-amine]: on human recombinant HDAC6 (HDAC6 over HDAC1), the “HDAC6 selectivity (fold)” value is listed as 308 fold. Moreover, the figures for the IC50 at human recombinant HDAC6 (setting [1]) and on human recombinant HDAC1 (setting [2]) were 162 nM and above 50000 nM, respectively.

As for `CC(C)(C)OC(=O)Nc1cccc(-c2cn(Cc3ccc(-c4nnc(C(F)F)o4)cn3)nn2)c1` [Compound 3741, Tert-butyl (3-(1-((5-(5-(difluoromethyl)-1,3,4-oxadiazol-2-yl)pyridin-2-yl)methyl)-1H-1,2,3-triazol-4-yl)phenyl)carbamate], the “HDAC6 selectivity (fold)” value at human recombinant HDAC6 (HDAC1 IC50 / HDAC6 IC50) is on record as 1754 fold. Further, the IC50 on human recombinant HDAC6 (setting [3]) is 28.5 nM; at human recombinant HDAC1 (setting [4]), above 50000 nM.
